Columns and labels:
Candida albicans = assay: In vitro growth inhibition test in liquid nutrient medium; type: cell-based
Experimental: (§1) Candida albicans and Trichomonas vaginalis strains are cultured in a liquid nutrient medium. Incubation is carried out at 37°C for 48 hours. Each nutrient medium (10 ml) is inoculated with 1000 germs per ml. The number of germs is determined in a Burker chamber. Dilution series are prepared from the stock inoculum by using a physiological sodium chloride solution. To the mixture of the nutrient medium and 0.5 ml a physiological sodium chloride solution 2-methyl-1,4-naphthoquinone, nystatin and mixtures thereof are added.
(§2) The minimal inhibitory concentration of nystatin is determined in the manner disclosed above.
(§3) 1.25 mg/10 ml of 2-methyl-1,4-naphthoquinone is added to an amount of nystatin being the one fiftieth (1/50) part of the minimal inhibitory concentration. Complete inhibition of the growth of Candida albicans and Trichomonas vaginalis was observed.

Trichomonas vaginalis = assay: as above; type: cell-based
Experimental: as §1, §2, §3

[1] = tested on: vulvovaginitis candidomycetica; assay: In vivo test: treatment of patients with suppositories; details: patients with vulvovaginitis candidomycetica treated with suppositories; number of patients 35
Experimental: Patients suffering of vulvovaginitis candidomycetica are treated with suppositories according to Example 1. As control suppositories containing no 2-methyl-1,4-naphthoquinone-sodium sulfite adduct but nystatin only are used. Number of patients 35.

[2] = concentration smaller than 5 mg/10 ml
[3] = liquid nutrient medium 10 ml, 1000 germs per ml, 37°C, 48 hours

| Structure (SMILES) | activity at a smaller concentration than the minimal inhibitory concentration (Candida albicans; [2]) | minimal inhibitory concentration (Candida albicans; [3]) [mg/10 ml] | activity at a smaller concentration than the minimal inhibitory concentration (Trichomonas vaginalis; [2]) | minimal inhibitory concentration (Trichomonas vaginalis; [3]) [mg/10 ml] | Recovery, in % of the cases [1] [%] |
| --- | --- | --- | --- | --- | --- |
| CC1=CC(=O)c2ccccc2C1=O [2-methyl-1,4-naphthoquinone] | completely inactive | 5 | completely inactive | 5 |  |
| C[C@@H]1[C@H](O)[C@@H](C)/C=C/C=C/CC/C=C/C=C/C=C/C=C/C(O[C@H]2O[C@H](C)[C@@H](O)[C@H](N)[C@@H]2O)CC2O[C@](O)(CC(O)C(O)CCC(O)CC(O)CC(O)CC(=O)O[C@H]1C)CC(O)C2C(=O)O (some centres unmarked) [Nystatin] |  |  |  |  | 66 |

From patent EP0065513B1, “ANTIMYCOTIC SYNERGISTIC PHARMACEUTICAL COMPOSITIONS AND PROCESS FOR THE PREPARATION THEREOF” (CHINOIN Gyogyszer és Vegyészeti Termékek Gyára RT., priority 1980, dated 1982)
